Where two headings read alike, the source gives them in different places.
Target: T1, STAT3 (Homo sapiens, UniProt P40763)
T1 construct: expressed in transfected cells; host or cells: A549
Assay: STAT3 HiBiT degradation assay (Nano-Glo HiBiT lytic detection) in transfected A549 cells
Assay type: cell-based
Procedure: Example 1. HiBiT Assay Protocol
Compound preparation and Cell seeding: The transfected A549 cells were harvested from dish into cell culture medium and cell numbers counted. Cells were diluted with culture medium to the desired density and 30 μL of cell suspension (about 2000 cells/well) were added into each well of a 384-well cell culture plate as designated and transferred into 37° C. 5% CO2 incubator for 24 h. Compounds were dissolved to 10 mM stock solution and 12 μL of the stock solution was transferred to a 384 LDV-plate. 3 fold, 10-point dilution was performed by transferring 4 μL compound into 8 μL DMSO using a TECAN (EVO200) liquid handler. 30 μl of diluted compound from compound source plate was transferred into the cell plate as designated by using Echo550 and transferred into 37° C. 5% CO2 incubator for 24 h.
Detection: Plates were removed from incubators and equilibrated at room temperature for 15 minutes. Nano-Glo Hibit Lytic Detection reagent (Promega Cat #N3040) was thawed and equilibrated to room temperature before the experiment. 30 μL of Nano-Glo Hibit Lytic Detection reagent was added into each well to be detected. The plates were held at room temperature for 10 min followed by reading on EnSpire.
Data analysis: The remaining activity was calculated following the formula: Remaining Activity (%)=100%×(Lumsample−LumNC)/(LumPC−LumNC). Calculate the IC50 by fitting the curve using Xlfit (v5.3.1.3), equation 201: fit=(A+((B−A)/(1+((x/C)^D)))); A: Botton; B: Top; C: IC50; and D: Slope.
The letter codes for STAT3 DC50 include: A (<0.01 μM), B (0.01-0.1 μM), C (0.1-1.0 μM), and D (>1.0 μM).

[1] = 24 h compound incubation, read-out: STAT3 HiBIT A549 degradation 24 h: Average external-Abs DC50
[2] = read-out: STAT3 HiBIT A549 degradation 24 h: Average external-Abs DC50, 24 h compound incubation

T1 sequence (P40763 whole entry): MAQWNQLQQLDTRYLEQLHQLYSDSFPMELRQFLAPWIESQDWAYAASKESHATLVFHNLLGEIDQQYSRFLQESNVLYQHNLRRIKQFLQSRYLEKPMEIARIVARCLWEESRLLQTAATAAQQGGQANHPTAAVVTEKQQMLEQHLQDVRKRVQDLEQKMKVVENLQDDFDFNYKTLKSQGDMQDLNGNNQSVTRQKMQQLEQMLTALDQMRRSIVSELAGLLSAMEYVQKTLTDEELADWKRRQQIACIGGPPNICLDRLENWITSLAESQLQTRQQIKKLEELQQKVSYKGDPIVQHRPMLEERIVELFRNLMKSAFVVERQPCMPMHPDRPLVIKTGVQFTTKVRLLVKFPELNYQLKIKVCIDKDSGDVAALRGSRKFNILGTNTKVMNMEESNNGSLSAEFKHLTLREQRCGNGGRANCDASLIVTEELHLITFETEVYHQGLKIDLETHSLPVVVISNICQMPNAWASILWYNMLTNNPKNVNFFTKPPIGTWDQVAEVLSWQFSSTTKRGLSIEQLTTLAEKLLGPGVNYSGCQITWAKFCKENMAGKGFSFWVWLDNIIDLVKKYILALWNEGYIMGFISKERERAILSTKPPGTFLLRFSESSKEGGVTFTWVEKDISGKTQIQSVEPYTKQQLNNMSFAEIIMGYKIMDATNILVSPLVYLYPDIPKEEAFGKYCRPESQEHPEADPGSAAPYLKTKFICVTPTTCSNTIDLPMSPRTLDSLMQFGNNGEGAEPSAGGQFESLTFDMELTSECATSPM

Structure (SMILES)	DC50 [1] [nM]	DC50 [2] [nM]
CCS(=O)(=O)c1ccc(CNC(=O)[C@H](CCC(N)=O)NC(=O)[C@@H]2CC[C@@H]3CCN(C(=O)C[C@H]4CC[C@@H](Cc5ccc6c(c5)n(C)c(=O)n6C5CCC(=O)NC5=O)CC4)C[C@H](NC(=O)c4cc5cc(C(=O)P(=O)(O)O)ccc5[nH]4)C(=O)N32)cc1 (stereo partly drawn) [I-62]	10 to 100	
CC(C)c1ccc(CNC(=O)[C@H](CCC(N)=O)NC(=O)[C@@H]2CC[C@@H]3CCN(C(=O)[C@H]4CC[C@@H](CCc5ccc6c(c5)n(C)c(=O)n6C5CCC(=O)NC5=O)CC4)C[C@H](NC(=O)c4cc5cc(C(=O)P(=O)(O)O)ccc5[nH]4)C(=O)N32)cc1Cl (stereo partly drawn) [I-33]		10 to 100
Cn1c(=O)n(C2CCC(=O)NC2=O)c2ccc(C[C@H]3CC[C@@H](CC(=O)N4CC[C@H]5CC[C@@H](C(=O)NC6(CCC(N)=O)CC6)N5C(=O)[C@@H](NC(=O)c5cc6cc(C(=O)P(=O)(O)O)ccc6[nH]5)C4)CC3)cc21 (stereo partly drawn) [I-31]	> 1000	
C[C@@H](NC(=O)[C@H](CCC(N)=O)NC(=O)[C@@H]1CC[C@@H]2CCN(C(=O)C[C@H]3CC[C@@H](Cc4ccc5c(c4)n(C)c(=O)n5C4CCC(=O)NC4=O)CC3)C[C@H](NC(=O)c3cc4cc(C(=O)P(=O)(O)O)ccc4[nH]3)C(=O)N21)c1ccc(S(C)(=O)=O)cc1 (stereo partly drawn) [I-40]	100 to 1000	
Cn1c(=O)n(C2CCC(=O)NC2=O)c2ccc(C[C@H]3CC[C@H](CC(=O)N4CC[C@H]5CC[C@@H](C(=O)N[C@@H](CCC(N)=O)C(=O)NCc6ccc(S(C)(=O)=O)cc6)N5C(=O)[C@@H](NC(=O)c5cc6cc(C(=O)P(=O)(O)O)ccc6[nH]5)C4)CC3)cc21 (stereo partly drawn) [I-74]	10 to 100	
Cn1c(=O)n(C2CCC(=O)NC2=O)c2ccc(NC[C@H]3CC[C@@H](C(=O)N4CC[C@H]5CC[C@@H](C(=O)N[C@@H](CCC(N)=O)C(=O)NCc6ccc(S(C)(=O)=O)cc6)N5C(=O)[C@@H](NC(=O)c5cc6cc(C(=O)P(=O)(O)O)ccc6[nH]5)C4)CC3)cc21 (stereo partly drawn) [I-48]	10 to 100	
Cn1c(=O)n(C2CCC(=O)NC2=O)c2ccc(CCCCCCC(=O)N3CC[C@H]4CC[C@@H](C(=O)N[C@@H](CCC(N)=O)C(=O)NCc5ccc(S(C)(=O)=O)cc5)N4C(=O)[C@@H](NC(=O)c4cc5cc(C(=O)P(=O)(O)O)ccc5[nH]4)C3)cc21 (stereo partly drawn) [I-76]	10 to 100	
Cc1ncsc1-c1ccc([C@H](C)NC(=O)[C@@H]2C[C@@H](O)CN2C(=O)[C@@H](NC(=O)CCCCCc2cccc(OC[C@H](CCC(N)=O)NC(=O)[C@@H]3CC[C@@H]4CCN(C(=O)C[C@H]5CC[C@@H](Cc6ccc7c(c6)n(C)c(=O)n7C6CCC(=O)NC6=O)CC5)C[C@H](NC(=O)c5cc6cc(C(=O)P(=O)(O)O)ccc6[nH]5)C(=O)N43)c2F)C(C)(C)C)cc1 (stereo partly drawn) [I-36]	10 to 100	
Cc1cc(CCCC(=O)N[C@H](C(=O)N2C[C@H](O)C[C@H]2C(=O)N[C@@H](C)c2ccc(-c3scnc3C)cc2)C(C)(C)C)c(F)c(OC[C@H](CCC(N)=O)NC(=O)[C@@H]2CC[C@@H]3CCCC[C@H](NC(=O)c4cc5cc(C(=O)P(=O)(O)O)ccc5[nH]4)C(=O)N32)c1 [I-7]	< 10	
Cn1c(=O)n(C2CCC(=O)NC2=O)c2ccc(C[C@H]3CC[C@@H](CC(=O)N4CC[C@H]5CC[C@@H](C(=O)NC6(CCC(N)=O)CCCC6)N5C(=O)[C@@H](NC(=O)c5cc6cc(C(=O)P(=O)(O)O)ccc6[nH]5)C4)CC3)cc21 (stereo partly drawn) [I-29]	> 1000	
Cc1ncsc1-c1ccc([C@H](C)NC(=O)[C@@H]2C[C@@H](O)CN2C(=O)[C@@H](NC(=O)CCCc2cc(F)cc(OC[C@H](CCC(N)=O)NC(=O)[C@@H]3CC[C@@H]4CCCC[C@H](NC(=O)c5cc6cc(C(=O)P(=O)(O)O)ccc6[nH]5)C(=O)N43)c2Cl)C(C)(C)C)cc1 [I-8]	< 10	
Cn1c(=O)n(C2CCC(=O)NC2=O)c2ccc(C[C@H]3CC[C@@H](CC(=O)N4CC[C@H]5CC[C@@H](C(=O)N[C@@H](CCC(N)=O)COc6ccc(S(C)(=O)=O)cc6)N5C(=O)[C@@H](NC(=O)c5cc6cc(C(=O)P(=O)(O)O)ccc6[nH]5)C4)CC3)cc21 (stereo partly drawn) [I-67]	100 to 1000	
CC(=O)N1CC[C@H]2CC[C@@H](C(=O)N[C@@H](CCC(N)=O)COc3cc(F)cc(CCCC(=O)N[C@H](C(=O)N4C[C@H](O)C[C@H]4C(=O)N[C@@H](C)c4ccc(-c5scnc5C)cc4)C(C)(C)C)c3F)N2C(=O)[C@@H](NC(=O)c2cc3cc(C(=O)P(=O)(O)O)ccc3[nH]2)C1 [I-79]	< 10	
Cc1ncsc1-c1ccc([C@H](C)NC(=O)[C@@H]2C[C@@H](O)CN2C(=O)[C@@H](NC(=O)CCCc2cccc(OC[C@H](CCC(N)=O)NC(=O)[C@@H]3CCCN3C(=O)[C@H](C)NC(=O)c3cc4cc(C(=O)P(=O)(O)O)ccc4[nH]3)c2Cl)C(C)(C)C)cc1 [I-58]	10 to 100	
CC(=O)N1CC[C@H]2CC[C@@H](C(=O)N[C@@H](CCC(N)=O)COc3cccc(CCCC(=O)N[C@H](C(=O)N4C[C@H](O)C[C@H]4C(=O)N[C@@H](C)c4ccc(-c5scnc5C)cc4)C(C)(C)C)c3Cl)N2C(=O)[C@@H](NC(=O)c2cc3cc(C(F)(F)P(=O)(O)O)ccc3s2)C1 [I-83]		> 1000
Cn1c(=O)n(C2CCC(=O)NC2=O)c2ccc(CC[C@H]3CC[C@@H](C(=O)N4CC[C@H]5CC[C@@H](C(=O)N[C@@H](CCC(N)=O)c6ccccn6)N5C(=O)[C@@H](NC(=O)c5cc6cc(C(=O)P(=O)(O)O)ccc6[nH]5)C4)CC3)cc21 (stereo partly drawn) [I-39]	10 to 100	
Cc1ncsc1-c1ccc(C2(NC(=O)[C@@H]3C[C@@H](O)CN3C(=O)[C@@H](NC(=O)CCCc3cccc(OC[C@H](CCC(N)=O)NC(=O)[C@@H]4Cc5cccc6c5N4C(=O)[C@@H](NC(=O)c4cc5cc(C(=O)P(=O)(O)O)ccc5[nH]4)CC6)c3Cl)C(C)(C)C)CC2)cc1 [I-71]	10 to 100	
CC(=O)N1CC[C@H]2CC[C@@H](C(=O)N[C@@H](CCC(N)=O)COc3cccc(CCCOc4cc([C@H](C(=O)N5C[C@H](O)C[C@H]5C(=O)NCc5ccc(-c6scnc6C)cc5)C(C)C)on4)c3Cl)N2C(=O)[C@@H](NC(=O)c2cc3cc(C(=O)P(=O)(O)O)ccc3[nH]2)C1 [I-69]	< 10	
Cn1c(=O)n(C2CCC(=O)NC2=O)c2ccc(C[C@H]3CC[C@@H](CC(=O)N4CC[C@H]5CC[C@@H](C(=O)N[C@@H](CCC(N)=O)C(=O)NCc6ccc(S(C)(=O)=O)c(F)c6)N5C(=O)[C@@H](NC(=O)c5cc6cc(C(=O)P(=O)(O)O)ccc6[nH]5)C4)CC3)cc21 (stereo partly drawn) [I-46]		10 to 100
Cn1c(=O)n(C2CCC(=O)NC2=O)c2ccc(C[C@H]3CC[C@@H](CC(=O)N4CC[C@H]5CC[C@@H](C(=O)N[C@@H](CCC(N)=O)C(=O)NC6(c7ccc(S(C)(=O)=O)cc7)CC6)N5C(=O)[C@@H](NC(=O)c5cc6cc(C(=O)P(=O)(O)O)ccc6[nH]5)C4)CC3)cc21 (stereo partly drawn) [I-38]	100 to 1000	
CC(C)c1ccc(CNC(=O)[C@H](CCC(=O)O)NC(=O)[C@@H]2CC[C@@H]3CCN(C(=O)[C@H]4CC[C@@H](CCc5ccc6c(c5)n(C)c(=O)n6C5CCC(=O)NC5=O)CC4)C[C@H](NC(=O)c4cc5cc(C(=O)P(=O)(O)O)ccc5[nH]4)C(=O)N32)cc1 (stereo partly drawn) [I-96, (4S)-4-[[(5S,8S,10aR)-6-oxo-5-[5-(phosphonocarbonyl)-1H-indole-2-amido]-3-[(1s,4s)-4-[2-[1-(2,6-dioxopiperidin-3-yl)-3-methyl-2-oxo-1,3-benzodiazol-5-yl]ethyl]cyclohexanecarbonyl]-octahydropyrrolo[1,2-a][1,5]diazocin-8-yl]formamido]-4-[[(4-isopropylphenyl)methyl]carbamoyl]butanoic acid]	> 1000	
C[C@H](CCC(N)=O)NC(=O)[C@@H]1Cc2cc(CCCCCCc3ccc4c(c3)n(C)c(=O)n4C3CCC(=O)NC3=O)cc3c2N1C(=O)[C@@H](NC(=O)c1cc2cc(C(=O)P(=O)(O)O)ccc2[nH]1)CC3 (stereo partly drawn) [I-49]	10 to 100	
Cn1c(=O)n(C2CCC(=O)NC2=O)c2ccc(CC[C@H]3CC[C@H](C(=O)N4CC[C@H]5CC[C@@H](C(=O)N[C@@H](CCC(N)=O)C(=O)NCc6ccc(S(C)(=O)=O)cc6)N5C(=O)[C@@H](NC(=O)c5cc6cc(C(=O)P(=O)(O)O)ccc6[nH]5)C4)CC3)cc21 (stereo partly drawn) [I-73]	10 to 100	
CNC(=O)N1CC[C@H]2CC[C@@H](C(=O)N[C@@H](CCC(N)=O)COc3cccc(CCCC(=O)N[C@H](C(=O)N4C[C@H](O)C[C@H]4C(=O)N[C@@H](C)c4ccc(-c5scnc5C)cc4)C(C)(C)C)c3Cl)N2C(=O)[C@@H](NC(=O)c2cc3cc(C(F)(F)P(=O)(O)O)ccc3s2)C1 [I-98]	> 1000	
COC(=O)N1CC[C@H]2CC[C@@H](C(=O)N[C@@H](CCC(N)=O)COc3cccc(CCCC(=O)N[C@H](C(=O)N4C[C@H](O)C[C@H]4C(=O)N[C@@H](C)c4ccc(-c5scnc5C)cc4)C(C)(C)C)c3Cl)N2C(=O)[C@@H](NC(=O)c2cc3cc(C(F)(F)P(=O)(O)O)ccc3[nH]2)C1 [I-84]	> 1000	
C[C@H](CCC(N)=O)NC(=O)[C@@H]1CC[C@@H]2CCN(C(=O)C[C@H]3CC[C@@H](Cc4ccc5c(c4)n(C)c(=O)n5C4CCC(=O)NC4=O)CC3)C[C@H](NC(=O)c3cc4cc(C(=O)P(=O)(O)O)ccc4[nH]3)C(=O)N21 (stereo partly drawn) [I-50]	100 to 1000	
Cc1ncsc1-c1ccc([C@H](C)NC(=O)[C@@H]2C[C@@H](O)CN2C(=O)[C@@H](NC(=O)CCCc2cccc(OC[C@H](CCC(N)=O)NC(=O)[C@@H]3CCCN3C(=O)[C@@H](NC(=O)c3cc4cc(C(=O)P(=O)(O)O)ccc4[nH]3)C3CCCCC3)c2Cl)C(C)(C)C)cc1 [I-12]	10 to 100	

Source: patent US20240016942A1, “STAT DEGRADERS AND USES THEREOF” (Kymera Therapeutics, Inc., priority 2020, published 2024)
